Reference: patent US11066447B2, “Aureobasidium derivatives and methods of synthesis” (AureoGen Biosciences, Inc., priority 2016, dated 2021)
Converted amounts (≈) assume the structure as drawn. Where two headings read alike, the source gives them in different places. Numbered stars: 1 amine (or outer) side, 2 acyl side, 3 side chain; on linkers, the order of the positions; unused ones are H or OH. Square brackets hold non-standard residues; d marks the D form. Peptide text beside a SMILES is read from it. X26 = CC1CCN(c2cnc(-c3cccc(C[C@@H](C(=O)[*:2])N(C)[*:1])c3)cn2)CC1; X20 = CN([C@@H](Cc1cccc(-c2cnn(C3CCCC3)c2)c1)C(=O)[*:2])[*:1]; X16 = CC(C)c1cc(-c2cccc(C[C@@H](C(=O)[*:2])N(C)[*:1])c2)ccn1; X18 = CN([C@@H](Cc1cccc(-c2ccc3ccncc3c2)c1)C(=O)[*:2])[*:1]; X25 = CN([C@@H](Cc1cccc(-c2ccc3cccnc3c2)c1)C(=O)[*:2])[*:1]; Hmp(2R,3S) = CC[C@H](C)[C@@H](O)C(=O)O; NMeVal(β-OH) = CN[C@H](C(=O)O)C(C)(C)O; NMeV = CN[C@H](C(=O)O)C(C)C

Tests used:
A. flavus MMX 5948 = test: MIC/MEC assay (CLSI microdilution); assay type: cell-based; conditions: Aspergillus flavus, MMX5948, 48 h; for minimal effective concentration: RPMI plus 0.002% Tween-80; for MIC: RPMI plus 0.002% Tween-80, read-out: MIC
Protocol: (§1) Aureobasidin and test compounds (i.e., AbA derivatives of the present invention) were received from Kalexsyn, Inc. (Kalamazoo, Mich.) as powder and were stored at 4° C. until the day of assay. […] amphotericin was obtained from Sigma Aldrich and stored under like conditions. […] Ethanol (95%) was used as a solvent and diluent for all AbA compounds. Amphotericin B was tested from 0.06-64 μg/mL. Amphotericin B (Sigma Aldrich; St. Louis, Mo.; Cat No. A9528-100MG, Lot No. 120M4087) was dissolved and diluted with dimethylsulfoxide (DMSO; Sigma Aldrich; St. Louis, Mo.; Cat No. 472301 Lot No. SHBD2072V).
(§2) The solvents were added to the test agents and the stock solutions stood for approximately 1 hr at room temperature prior to use to auto sterilize. Stock solutions were prepared at 40× the desired top concentration in the test plate.
(§3) All of the test isolates were originally received from either the American Type Culture Collection (ATCC), clinical labs, or directly from Aureogen Biosciences. Organisms stored by Micromyx were cultured on agar medium appropriate to each organism. Colonies were picked by swab from the isolation plates and put into suspension in appropriate broth containing cryoprotectant. The suspensions were aliquoted into cryogenic vials and maintained at −80° C.
(§4) Prior to testing, Candida isolates were streaked from the frozen vials on Sabouraud dextrose agar. The yeast isolates were incubated for 48 hours at 35° C. before use. The fungal isolates were obtained from enumerated fungal stocks previously prepared at Micromyx and stored in phosphate buffered saline at 4° C.
(§5) Test Media. The medium employed for the MIC assay was RPMI-1640 medium from HyClone Laboratories (Logan, Utah; Lot No. AYB60287A). The medium was prepared according to Clinical and Laboratory Standards Institute (CLSI) guidelines (1, 2), and modified to include 0.002% Tween-80. Candida parapsilosis ATCC 22019 (MMX 2323) and Aspergillus fumigatus ATCC MYA-3626 (MMX 5280) were also tested without Tween-80 to provide data for the quality control of amphotericin B in accordance with CLSI (3) and to assess the effect of Tween-80 on the activity of the test agents.
(§6) Test Procedure. The MIC assay method followed the procedure described by CLSI (1, 2) and employed automated liquid handlers to conduct serial dilutions and liquid transfers. Automated liquid handlers included the Multidrop 384 (Labsystems, Helsinki, Finland), Biomek 2000 and Biomek FX (Beckman Coulter, Fullerton Calif.). The wells in columns 2-12 in standard 96-well microdilution plates (Costar 3795) were filled with 150 μl of the appropriate diluent (95% EtOH for investigational compounds, 100% DMSO for amphotericin B). These assay plates would become the ‘mother plates’ from which the assay ‘daughter plates’ would be prepared. The drugs (300 μL at 40× the desired top concentration in the test plates) were dispensed into the appropriate well in Column 1 of the mother plates. The Biomek 2000 was used to make two-fold serial dilutions through Column 11 in the “mother plate”. The wells of Column 12 contained no drug and served as the organism growth control wells.
(§7) The daughter plates were loaded with 185 μL per well on the Multidrop 384 with RPMI plus 0.002% Tween-80 or RPMI containing no Tween-80 for the testing of the two QC isolates. The daughter plates were prepared on the Biomek FX instrument which transferred 5 μL of drug solution from each well of a mother plate to each corresponding well of each daughter plate in a single step.
(§8) A standardized inoculum of each organism was prepared per CLSI methods (1, 2). For the Candida isolates, colonies were picked from the streak plate and a suspension was prepared in RPMI to equal a 0.5 McFarland standard. This suspension was diluted 1:100 in RPMI resulting in a final concentration of approximately 0.5-2.5×10^3 CFU/mL. […]

[1] = tested on: A. niger MMX 0624 ATCC 16888; test: MIC/MEC assay (CLSI microdilution); assay type: cell-based; conditions: Aspergillus niger, ATCC16888, 48 h; for minimal effective concentration: RPMI plus 0.002% Tween-80, read-out: MEC; for MIC: RPMI plus 0.002% Tween-80, read-out: MIC
Protocol: as §1, §2, §3, §4, §5, §6, §7, §8

A. fumigatus MMX 5944 = test: MIC/MEC assay (CLSI microdilution); assay type: cell-based; conditions: Aspergillus fumigatus, MMX5944, 48 h; for minimal effective concentration: RPMI plus 0.002% Tween-80; for MIC: RPMI plus 0.002% Tween-80, read-out: MIC
Protocol: as §1, §2, §3, §4, §5, §6, §7, §8

[2] = tested on: A. fumigatus MMX 6782 ATCC 13073; test: MIC/MEC assay (CLSI microdilution); assay type: cell-based; conditions: Aspergillus fumigatus, ATCC13073, 48 h; for minimal effective concentration: RPMI plus 0.002% Tween-80, read-out: MEC; for MIC: RPMI plus 0.002% Tween-80, read-out: MIC
Protocol: as §1, §2, §3, §4, §5, §6, §7, §8

[3] = tested on: A. fumigatus MMX 6781 ATCC MYA-4609; test: MIC/MEC assay (CLSI microdilution); assay type: cell-based
Protocol: as §1, §2, §3, §4, §5, §6, §7, §8

[4] = tested on: A. fumigatus from Aureogen; test: MIC/MEC assay (CLSI microdilution); assay type: cell-based; conditions: Aspergillus fumigatus, 48 h; for minimal effective concentration: RPMI plus 0.002% Tween-80; for MIC: RPMI plus 0.002% Tween-80, read-out: MIC
Protocol: as §1, §2, §3, §4, §5, §6, §7, §8

[5] = tested on: C. parapsilosis MMX 2323 ATCC 22019; test: MIC assay (CLSI microdilution); assay type: cell-based, Candida parapsilosis; conditions: read-out: MIC
Protocol: as §1, §2, §3, §4, §5, §6, §7, §8

[6] = tested on: C. neoformans MMX 0634 ATCC 90112; test: MIC assay (CLSI microdilution); assay type: cell-based; conditions: Cryptococcus neoformans, ATCC90112, RPMI plus 0.002% Tween-80; read-out: MIC
Protocol: as §1, §2, §3, §4, §5, §6, §7, §8

[7] = tested on: C. albicans MMX 2000 ATCC 10231; test: MIC assay (CLSI microdilution); assay type: cell-based; conditions: Candida albicans, ATCC10231, RPMI plus 0.002% Tween-80; read-out: MIC
Protocol: as §1, §2, §3, §4, §5, §6, §7, §8

[8] = tested on: A. fumigatus MMX 5280 ATCC MYA-3626; test: MIC/MEC assay (CLSI microdilution); assay type: cell-based, Aspergillus fumigatus; conditions: for minimal effective concentration / MIC: Aspergillus fumigatus, 48 h
Protocol: as §1, §2, §3, §4, §5, §6, §7, §8

[9] = Aspergillus fumigatus, 48 h, RPMI plus 0.002% Tween-80, read-out: MIC
[10] = Aspergillus fumigatus, RPMI plus 0.002% Tween-80, 48 hr
[11] = ATCC22019, RPMI plus 0.002% Tween-80
[12] = RPMI plus 0.002% Tween-80, read-out: MEC
[13] = RPMI plus 0.002% Tween-80, read-out: MIC
[14] = Without Tween-80, read-out: MIC
[15] = RPMI plus 0.002% Tween-80, 48 hr
[16] = Without Tween-80, read-out: MEC

SMILES | minimal effective concentration (A. flavus MMX 5948) [µg/mL] | MIC (A. flavus MMX 5948) [µg/mL] | minimal effective concentration [1] [µg/mL] | MIC [1] [µg/mL] | minimal effective concentration (A. fumigatus MMX 5944) [µg/mL] | MIC (A. fumigatus MMX 5944) [µg/mL] | minimal effective concentration [2] [µg/mL] | MIC [2] [µg/mL] | MIC [3, 9] [µg/mL] | minimal effective concentration [3, 10] [µg/mL] | minimal effective concentration [4] [µg/mL] | MIC [4] [µg/mL] | MIC [5, 11] [µg/mL] | MIC ([5]; ATCC22019, Without Tween-80) [µg/mL] | MIC [6] [µg/mL] | MIC [7] [µg/mL] | minimal effective concentration [8, 12] [µg/mL] | MIC [8, 13] [µg/mL] | MIC [8, 14] [µg/mL] | minimal effective concentration [8, 16] [µg/mL] | further results
CC[C@H](C)[C@@H]1NC(=O)[C@@H]2CCCN2C(=O)[C@H](Cc2cccc(-c3ccc4cccnc4c3)c2)N(C)C(=O)[C@H](Cc2ccccc2)NC(=O)[C@H](C(C)C)N(C)C(=O)[C@@H]([C@@H](C)CC)OC(=O)[C@H](C(C)(C)O)N(C)C(=O)[C@H](CC(C)C)NC(=O)[C@H](C(C)C)N(C)C1=O [Compound 10] (cyclo(F[X25]PI[NMeV]L[NMeVal(β-OH)][Hmp(2R,3S)][NMeV])) | 0.5 | 1 | 0.06 | 0.06 | 0.12 | 0.5 | 0.25 | 1 | 1 | 0.25 | 0.25 | 1 | 0.12 | 1 (≈ 0.814 µM) | 0.12 | 0.03 | 0.25 | 1 | 2 (≈ 1.63 µM) |  | MEC ([8]; Without Tween-80, 48 hr): 1 µg/mL
CC[C@H](C)[C@@H]1NC(=O)[C@@H]2CCCN2C(=O)[C@H](Cc2cccc(-c3cnc(N4CCC(C)CC4)cn3)c2)N(C)C(=O)[C@H](Cc2ccccc2)NC(=O)[C@H](C(C)C)N(C)C(=O)[C@@H]([C@@H](C)CC)OC(=O)[C@H](C(C)(C)O)N(C)C(=O)[C@H](CC(C)C)NC(=O)[C@H](C(C)C)N(C)C1=O [Compound 11] (cyclo(F[X26]PI[NMeV]L[NMeVal(β-OH)][Hmp(2R,3S)][NMeV])) | 1 | > 64 | 0.5 | 0.5 | 2 | > 64 | 0.5 | > 64 |  |  | 2 | > 64 | 0.25 | 1 (≈ 0.783 µM) | 0.25 | 0.06 | 8 | > 64 | > 64 | 4 | MEC [3, 15]: 8 µg/mL; MIC [3, 15]: 64 µg/mL
CC[C@H](C)[C@@H]1NC(=O)[C@@H]2CCCN2C(=O)[C@H](Cc2cccc(-c3cnn(C4CCCC4)c3)c2)N(C)C(=O)[C@H](Cc2ccccc2)NC(=O)[C@H](C(C)C)N(C)C(=O)[C@@H]([C@@H](C)CC)OC(=O)[C@H](C(C)(C)O)N(C)C(=O)[C@H](CC(C)C)NC(=O)[C@H](C(C)C)N(C)C1=O [Compound 12] (cyclo(F[X20]PI[NMeV]L[NMeVal(β-OH)][Hmp(2R,3S)][NMeV])) | > 64 | > 64 | > 64 | > 64 | > 64 | > 64 | > 64 | > 64 | > 64 | > 64 | > 64 | > 64 | 0.12 | 1 (≈ 0.809 µM) | 0.5 | 0.03 | > 64 | > 64 | > 64 | > 64 | 
CC[C@H](C)[C@@H]1NC(=O)[C@@H]2CCCN2C(=O)[C@H](Cc2cccc(-c3ccnc(C(C)C)c3)c2)N(C)C(=O)[C@H](Cc2ccccc2)NC(=O)[C@H](C(C)C)N(C)C(=O)[C@@H]([C@@H](C)CC)OC(=O)[C@H](C(C)(C)O)N(C)C(=O)[C@H](CC(C)C)NC(=O)[C@H](C(C)C)N(C)C1=O [Compound 16] (cyclo(F[X16]PI[NMeV]L[NMeVal(β-OH)][Hmp(2R,3S)][NMeV])) | 0.5 | 1 | 0.5 | 0.5 | 2 | > 64 | 1 | > 64 | > 64 | 2 | 2 | > 64 | 0.12 | 1 (≈ 0.819 µM) | 0.12 | 0.03 | 2 | > 64 | > 64 | 2 | 
CC[C@H](C)[C@@H]1NC(=O)[C@@H]2CCCN2C(=O)[C@H](Cc2cccc(-c3ccc4ccncc4c3)c2)N(C)C(=O)[C@H](Cc2ccccc2)NC(=O)[C@H](C(C)C)N(C)C(=O)[C@@H]([C@@H](C)CC)OC(=O)[C@H](C(C)(C)O)N(C)C(=O)[C@H](CC(C)C)NC(=O)[C@H](C(C)C)N(C)C1=O [Compound 17] (cyclo(F[X18]PI[NMeV]L[NMeVal(β-OH)][Hmp(2R,3S)][NMeV])) | 0.12 | 0.5 | 0.06 | 0.12 | > 64 | > 64 | > 64 | > 64 | > 64 | > 64 | > 64 | > 64 | 0.06 | 1 (≈ 0.814 µM) | 0.25 | 0.015 | > 64 | > 64 | > 64 | > 64 | 
